Assay results as given in paper PMC9627624, “Molecular iodine-promoted oxidative cyclization for the synthesis of 1,3,4-thiadiazole-fused- [1,2,4]-thiadiazole incorporating 1,4-benzodioxine moiety as potent inhibitors of α-amylase and α-glucosidase: In vitro and in silico study” (Frontiers in Chemistry, 2022).

Structure (SMILES) | melting point [°C]
O=[N+]([O-])c1ccc(/N=c2\snc3sc(C4COc5ccccc5O4)nn23)cc1 (stereo not shown) [Compound 1] | 210 to 211
Oc1ccc(/N=c2\snc3sc(C4COc5ccccc5O4)nn23)c(O)c1 (stereo not shown) [Compound 2] | 201 to 202
Oc1cc(O)cc(/N=c2\snc3sc(C4COc5ccccc5O4)nn23)c1 (stereo not shown) [Compound 3] | 200 to 201
Oc1ccc(/N=c2\snc3sc(C4COc5ccccc5O4)nn23)cc1O (stereo not shown) [Compound 5] | 201 to 202
Oc1ccc(O)c(/N=c2\snc3sc(C4COc5ccccc5O4)nn23)c1 (stereo not shown) [Compound 6] | 199 to 200
Oc1cccc(/N=c2\snc3sc(C4COc5ccccc5O4)nn23)c1 (stereo not shown) [Compound 7] | 191 to 192
Oc1cc(O)c(/N=c2\snc3sc(C4COc5ccccc5O4)nn23)c(O)c1 (stereo not shown) [Compound 8] | 214 to 215
CN(C)c1ccc(/N=c2\snc3sc(C4COc5ccccc5O4)nn23)cc1 (stereo not shown) [Compound 9] | 206 to 207
O=[N+]([O-])c1ccccc1/N=c1\snc2sc(C3COc4ccccc4O3)nn12 (stereo not shown) [Compound 10] | 209 to 210
Clc1ccc(/N=c2\snc3sc(C4COc5ccccc5O4)nn23)cc1 (stereo not shown) [Compound 13] | 204 to 205
COC(=O)c1ccc(/N=c2\snc3sc(C4COc5ccccc5O4)nn23)cc1 (stereo not shown) [Compound 14] | 216 to 217
Cc1ccccc1/N=c1\snc2sc(C3COc4ccccc4O3)nn12 (stereo not shown) [Compound 15] | 188 to 189
Cc1ccc(/N=c2\snc3sc(C4COc5ccccc5O4)nn23)cc1 (stereo not shown) [Compound 16] | 187 to 188
Clc1cccc(/N=c2\snc3sc(C4COc5ccccc5O4)nn23)c1 (stereo not shown) [Compound 17] | 203 to 204
Cc1cccc(/N=c2\snc3sc(C4COc5ccccc5O4)nn23)c1 (stereo not shown) [Compound 19] | 186 to 187
COc1ccc(/N=c2\snc3sc(C4COc5ccccc5O4)nn23)cc1O (stereo not shown) [Compound 20] | 212 to 213
Oc1cccc(/N=c2\snc3sc(C4COc5ccccc5O4)nn23)c1O (stereo not shown) [Compound 22] | 198 to 199
Fc1ccccc1/N=c1\snc2sc(C3COc4ccccc4O3)nn12 (stereo not shown) [Compound 23] | 193 to 194
Fc1cccc(/N=c2\snc3sc(C4COc5ccccc5O4)nn23)c1 (stereo not shown) [Compound 24] | 194 to 195
